Here are results for 9 molecules from PMC2974656, “Selective killing of human immunodeficiency virus infected cells by non-nucleoside reverse transcriptase inhibitor-induced activation of HIV protease” (Retrovirology, 2010).

Data set [1] relates to intracellular HIV PR activity. The arrangement: method as in PMID 17096588. The settings on record: 5 μM NNRTI; cited from earlier work.
Data set [2] concerns Gag processing in MT-4-IIIB cells. The data set can be described thus: Immunoblot of Gag processing in chronically infected MT-4 cells. Type of data set: cell-based, HIV-1. The note with it: 200 nM DRV. Background: In western blotting, separated proteins are transferred to a membrane and probed.
Data set [3] deals with HXB2D-EGFP infected CD4 positive cells isolated from PBMC. The experiment in a line: Killing of HIV-1 infected CD4 positive primary T-cells, flow cytometry. It counts as cell-based, human. The note with it: 100 nM DRV + 1 μM NNRTI + 1 μM AZT. How it is done: To validate our results obtained for the persistently infected cell line in a more relevant cell system we performed additional infection experiments using human peripheral blood mononuclear cells (PBMC). […]. PBMC isolated from healthy blood donors were activated and infected with a replication competent HIV-1 derivative which carries a gfp gene in the nef locus. The co-receptor antagonist AMD-3100 was added at day 2 post infection to prevent further viral spread. This was done to distinguish the proposed killing of infected cells from the inhibitory effect of NNRTIs and PIs on virus replication. […]. […] Similar results were obtained upon infection of CD4-positive primary T-cells with an EGFP-expressing virus (Figure 4B).
Figure 4 NNRTI induced selective killing of HIV-1 infected primary human cells. (A) PBMC prepared from buffy coats of healthy blood donors were infected with HIV-1AGFP. At day 2 post infection, 100 ng/ml AMD-3100 was added to all samples to prevent further infection. […] After further incubation for 5 days, cells were harvested and analyzed for the proportion of infected GFP expressing cells by flow cytometry. […] P-values were calculated using a two-tailed unpaired t-test (GraphPad Prism). Values were normalized to the respective solvent control. (B) CD4 positive cells isolated from PBMC were infected with HXB2D-EGFP. […] After further incubation for 3 days, cells were harvested and analyzed for the proportion of infected cells by flow cytometry. […] Asterisks: non-infected controls.
Peripheral blood mononuclear cells (PBMC) were purified from buffy coats of HIV-negative blood donors, grown in supplemented RPMI 1640 and stimulated by the addition of 10 ng/ml IL-2 (Biomol) and 2 μg/ml PHA (Sigma). PBMC pooled from two donors each were used for infection. […] For infection of PBMC, the HIV-1 derivatives HIV-1-AGFP [49] carrying the gfp gene fused to the codon for amino acid 16 of Nef in pNL4-3, or HXB2D-EGFP [60], which carries an egfp gene in the place of the viral nef open reading frame, were used as indicated. […]
(Flow cytometry measures light scatter and fluorescence of single cells or particles in a stream.)

For the next data set, the system named is HIV-1IIIB. The data set can be described thus: Direct antiviral activity: MT4-LTR-EGFP cells infected with HIV-1IIIB, EGFP fluorescence. Type of data set: cell-based. The note with it: read-out: Inhibition of HIV replication in vitro EC50. The method, then:
After 3 days of incubation, infected cells were quantified by determination of total EGFP fluorescence per well based on microscopy and subsequent image analysis. Threshold values were determined from the average pixel value plus 6 standard deviations from the uninfected control wells, and the median threshold from all control wells on a plate was defined as baseline GFP expression. Intensity values for the sample wells were then determined by subtracting the background threshold from each pixel value obtained from the image of the respective well and calculating the sum of net pixel intensities. Percent inhibition was calculated as 100 * (1 - (Sample - CC)/(VC - CC)).

Data set [4] deals with intracellular Gag processing by HIV PR. It counts as cell-based, HIV-1. The note with it: for Enhancement of alpha complementation: 0.03 to 10 μM NNRTI, result in words. The method, then: In previous studies, high concentrations of NNRTI (5 μM) were required to observe NNRTI mediated activation of intracellular HIV PR activity. […]. Towards this end, we developed a biochemical assay for gel independent quantitation of intracellular Gag processing by HIV PR in the context of a virus producing cell. We had previously shown that additional protein domains, consisting of small epitope tags or even the 27 kDa green fluorescent protein (EGFP), can be inserted between the MA and CA domains of the Gag and Gag-Pol polyproteins without affecting polyprotein production or processing by HIV PR [36]. Based on this, we designed a HIV reporter construct which contained a small N-terminal fragment ('alpha peptide') of Escherichia coli beta-galactosidase (β-Gal), flanked by two HIV PR recognition sites, between the MA and CA coding sequences of Gag (Figure 1A). […] This so called alpha complementation principle can be exploited for use in mammalian cells and has been employed for the establishment of various cell based biochemical assay systems. We reasoned that embedding of the small alpha peptide within the multi-domain polyproteins Gag or Gag-Pol, respectively, should impair its productive association with the omega subunit, while proteolytic release of the alpha peptide from the polyprotein by PR would allow the formation of enzymatically active β-Gal. This should allow us to monitor intracellular Gag and Gag-Pol processing through increased β-Gal activity.
Reconstituted β-Gal activity in cell lysates was measured by cleavage of the chromogenic substrate CPRG [42] as described in Methods.
The activity of β-Gal in cell lysates from transfected 293T cells was measured by enzymatic cleavage of the chromogenic β-Gal substrate chlorphenolred-β-D-galactopyranoside (CPRG, Roche; [42]). At 44 h post transfection, cells were briefly rinsed with PBS and suspended in reporter gene assay lysis buffer (Roche, 600 μl per 6-well dish) supplemented with a protease inhibitor mix (Roche). Cell suspensions were incubated for 10 min at room temperature and cell debris was subsequently removed by brief centrifugation. Five μl of supernatant were diluted in 96-well plates with 95 μl CPRG reaction buffer (50 mM potassium phosphate, pH 7.5, 1 mM MgCl2) and pre-warmed for 5 min to 37°C. 100 μl of pre-warmed reaction mix (100 μM CPRG in CPRG reaction buffer supplemented with protease inhibitor cocktail and 40 μM β-mercaptoethanol) were added and β-Gal mediated cleavage of CPRG was monitored by recording absorption at 592 nm every 2 min for 20 min at 37°C using a TECAN Safire multi-well reader. OD592 values were plotted over time and relative reaction rates (OD592/min) were determined from the initial linear velocities.

The nature of data set [5]: Cytotoxicity on uninfected control cells, EGFP fluorescence per well. It counts as cell-based. The settings on record: human. How it is done: (§1) The cytotoxicity of inhibitors was determined in parallel on MT4-CMV-EGFP control cells and on MT4-LTR-EGFP-IIIB virus producing cells, respectively.
For a further data set, the target named is T1, RT heterodimer (p66/p51) (Human immunodeficiency virus type 1 group M subtype B, UniProt P04585).
T1 construct: the bait protein (p66) was fused to the C-terminus of a chimeric receptor; expressed in transfected cells; host or cells: mammalian cells
The data set can be described thus: cell-based. It counts as cell-based, HIV-1. The text has this:
RT heterodimer formation was monitored using a mammalian two hybrid system described previously. In brief, the bait protein (p66) was fused to the C-terminus of a chimeric receptor consisting of the extracellular part of the erythropoietin receptor and the intracellular part of the leptin receptor incapable of STAT activation. The prey protein (p51) was coupled to a part of the cytoplasmic tail of the gp130 chain carrying several STAT3 recruitment domains. Interaction of bait and prey protein leads to functional complementation of STAT3 activity, which results in Epo dependent induction of a STAT3-responsive luciferase reporter gene. Enhancement of this interaction by the addition of compounds can thus be measured by an increase of luciferase expression.

The subject of another data set is 293T cells. The experiment in a line: Microscopically detectable impairment of cell growth of transfected 293T cells. The settings on record: high NNRTI concentrations (5 μM and above). Type of data set: cell-based. How it is done:
At 44 h post transfection, cell lysates were analyzed for β-Gal activity.

The test system of data set [6] is MT4-CMV-EGFP control cells. The experiment in a line: Cytotoxicity on uninfected control cells, EGFP fluorescence per well. It counts as cell-based. How it is done:
as §1

For data set [7], the system named is MT4-LTR-EGFP-IIIB HIV-1 producing cells. The experiment in a line: in vitro. The settings on record: for Cytotoxicity on MT4-LTR-EGFP-IIIB cells, in words: summary of Table 1. It counts as cell-based. The method, then:
as §1

A short description of another data set: in vitro. The note with it: human, 4 days, no DRV; mean ± SD; tested up to 10 μM; read-out: Cytotoxicity on MT4-LTR-EGFP-IIIB HIV-1 producing cells CC50. It counts as cell-based. The method, then:
as §1

Data set [8] addresses omega fragment of beta-galactosidase (inactive fragment lacking amino acids 11-41), encoded by pCMVω (Escherichia coli).
[9] abbreviates: Human immunodeficiency virus 1, 72 h, MT4-LTR-EGFP cells, HIV-1IIIB MOI 0.01, 3 days, mean ± SD of three or more measurements.
Where [10] appears, read: 293T cells, 44 h post transfection.
[11] abbreviates: MT4-CMV-EGFP control cells (uninfected), 4 days, mean ± SD, tested up to 10 μM, read-out: Cytotoxicity on MT4-CMV-EGFP control cells CC50.

Where two headings read alike, the source gives them in different places.

With `CC(C)Nc1cccnc1N1CCN(C(=O)c2cc3cc(NS(C)(=O)=O)ccc3[nH]2)CC1` [DLV, delavirdine], the “Stimulation of Gag or Gag-Pol processing” value in data set [1] is given as “did not stimulate”.

Turning to `CC(C)CN(C[C@@H](O)[C@H](Cc1ccccc1)NC(=O)O[C@H]1CO[C@H]2OCC[C@H]21)S(=O)(=O)c1ccc(N)cc1` [DRV, darunavir], in data set [2], the “Gag processing under DRV treatment” value is “impaired”. Moreover, the “Effect of DRV on the NNRTI effect in CD4-positive primary T-cells” value in data set [3] was “completely reversed”.

For orientation: CC50 means the concentration giving 50% cytotoxicity. Regarding `Cc1cc(C#N)cc(C)c1Oc1nc(Nc2ccc(C#N)cc2)nc(N)c1Br` [ETV, etravirine], the figures for the EC50 in the data set on HIV-1IIIB (setting [9]) and at RT heterodimer (p66/p51) were 3.2 ± 5 nM and 270 nM, respectively. The “Concentration required to achieve the maximal effect on β-Gal activity” value in data set [4] (setting [10]) is on record as ~ 1 μM. Besides, the CC50 at 4 days in data set [5] (setting [11]) was more than 10000 nM. Also, the “Impairment of cell growth with decrease in β-Gal activity indicative of cytotoxic effects” value in the data set with 293T cells is “most pronounced”.

In the case of `COP(=O)(c1cc(C)cc(/C=C/C#N)c1)c1c(C(N)=O)[nH]c2ccc(Cl)cc12` (stereo not drawn) [IDX-12899], the EC50 in the data set with HIV-1IIIB (MT4-LTR-EGFP cells, HIV-1IIIB MOI 0.01, 3 days, mean ± SD of three or more measurements) is 1.9 ± 1.3 nM; at RT heterodimer (p66/p51) (concentration enhancing luciferase signal by 50% over control, read-out: Enhancement of RT-Dimerization EC50) it was 4.6 nM. Also, in data set [4] (setting [10]), the “Concentration showing strong β-Gal activity enhancement” value was ~ 250 nM. Besides, the CC50 in data set [6] is more than 10000 nM; in data set [7] (4 days, no DRV, mean ± SD, tested up to 10 μM, read-out: Cytotoxicity on MT4-LTR-EGFP-IIIB HIV-1 producing cells CC50) it was 290 ± 210 nM. Further, in data set [7], the “Cytotoxicity on MT4-LTR-EGFP-IIIB cells, in words” value is reported as “submicromolar range”. Further, the “Promotion of RT dimerization, in words” value at RT heterodimer (p66/p51) (summary of Table 1) is recorded as “low nM range”.

Turning to `Cc1ccnc2c1NC(=O)c1cccnc1N2C1CC1` [NVP, nevirapine], the EC50 in the data set with HIV-1IIIB (setting [9]) turned out to be 42 ± 20 nM. The “Enhancement of alpha complementation” value in data set [4] is “little or no enhancement”. The CC50 at 4 days in data set [5] (setting [11]) was more than 10000 nM. In data set [1], the “Stimulation of Gag or Gag-Pol processing” value is reported as “did not stimulate”.

For the molecule `Cc1cc(C)c(Nc2ccnc(Nc3ccc(C#N)cc3)n2)c(C)c1` [TMC-120], the EC50 in the data set on HIV-1IIIB (setting [9]) is 1.7 ± 1.4 nM. In addition, the “Enhancement of alpha complementation” value in data set [4] is on record as “little or no enhancement”. In addition, the CC50 at 4 days in data set [5] (setting [11]) was determined as 3020 ± 900 nM; in “in vitro”, 2560 ± 740 nM. For the same molecule, the “Cytotoxicity on uninfected MT4-CMV-EGFP control cells, in words” value in data set [6] (text summary of Table 1, tested range up to 10 μM) is listed as “comparable toxicity”. Besides, the “Cytotoxicity on MT4-LTR-EGFP-IIIB cells, in words” value in data set [7] was “displayed toxicity”. For the same molecule, in the data set on 293T cells, the “Impairment of cell growth with decrease in β-Gal activity indicative of cytotoxic effects” value is on record as “most pronounced”. For the same molecule, in data set [1], the “Stimulation of Gag or Gag-Pol processing” value is “stimulation of Gag processing”.

In the case of `CCc1nn(CCO)c(CC)c1Oc1cc(C#N)cc(C#N)c1` [UK-453061], the EC50 in the data set on HIV-1IIIB (Human immunodeficiency virus 1, 72 h) amounted to 7.5 ± 1.4 nM; at RT heterodimer (p66/p51), 150 nM. For the same molecule, in data set [4], the “Enhancement of alpha complementation” value is reported as “little or no enhancement”. In data set [5], the CC50 at 4 days is more than 10000 nM.

Turning to “alpha peptide of Escherichia coli beta-galactosidase (amino acids 1-51), released from Gagα by HIV-1 (from UniProt P00722 1-51)”, in [8], the β-Gal activity (relative rate of CPRG cleavage) in lysates of 293T cells co-transfected with pCMVω and pCHIV.MAα, DMSO control came to 0.109 min^-1.

“modified Gagα precursor: HIV-1 Gag polyprotein with the β-Gal alpha peptide inserted between MA and CA (from pCHIV.MAα) (from UniProt P12493;P00722)” yielded a β-Gal activity (relative rate of CPRG cleavage) in lysates of 293T cells co-transfected with pCMVω and pCHIV.MAα, grown with 2 μM LPV (Gagα processing nearly completely blocked) in data set [8] of 0.054 min^-1.
